Measured values taken from ChEMBL document CHEMBL1151572, “Non-glycosidic/non-aminoalkyl-substituted indolocarbazoles as inhibitors of protein kinase C” (Bioorg Med Chem Lett, 1993).

Assays:
[1] = target: Myosin light chain kinase, smooth muscle (Gallus gallus, UniProt P11799); assay: In vitro for inhibitory activity against myosin light-chain kinase from chicken gizzard (M-kinase)
[2] = target: Protein kinase C (PKC); assay: In vitro for inhibitory activity against protein kinase C from rat brain
[3] = target: cAMP-dependent protein kinase catalytic subunit alpha (Bos taurus, UniProt P00517); assay: In vitro for inhibitory activity against cAMP-dependent protein kinase from bovine heart (A-kinase)
[4] = target: T1, cGMP-dependent protein kinase 1 (Bos taurus, UniProt P00516); assay: In vitro for inhibitory activity against cGMP-dependent protein kinase from bovine lung (G-kinase)
T1 sequence (P00516 whole entry): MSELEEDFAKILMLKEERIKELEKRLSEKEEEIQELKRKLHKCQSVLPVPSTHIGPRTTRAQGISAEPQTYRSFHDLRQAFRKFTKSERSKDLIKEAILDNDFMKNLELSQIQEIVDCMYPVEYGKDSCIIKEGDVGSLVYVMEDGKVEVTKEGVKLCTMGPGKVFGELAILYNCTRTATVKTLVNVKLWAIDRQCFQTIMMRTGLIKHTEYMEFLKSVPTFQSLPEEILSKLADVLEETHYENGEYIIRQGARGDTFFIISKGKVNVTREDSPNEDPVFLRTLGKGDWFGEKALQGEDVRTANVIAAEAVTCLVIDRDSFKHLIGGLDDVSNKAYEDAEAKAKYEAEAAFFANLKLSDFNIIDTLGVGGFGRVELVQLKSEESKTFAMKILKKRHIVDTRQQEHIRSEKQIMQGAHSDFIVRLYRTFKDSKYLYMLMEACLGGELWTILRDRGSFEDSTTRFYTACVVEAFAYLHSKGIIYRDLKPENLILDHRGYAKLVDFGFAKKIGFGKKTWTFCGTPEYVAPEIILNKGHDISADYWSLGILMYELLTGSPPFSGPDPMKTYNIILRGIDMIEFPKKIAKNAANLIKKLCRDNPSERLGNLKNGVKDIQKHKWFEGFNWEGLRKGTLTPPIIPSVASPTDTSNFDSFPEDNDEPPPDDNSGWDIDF

[5] = system: Splenocyte; assay: In vitro for inhibitory activity against tyrosine specific protein kinase from murine spleen cells (T-kinase); type: functional, cell-based; settings: Mus musculus

Myosin light chain kinase, smooth muscle, sequence (P11799 whole entry): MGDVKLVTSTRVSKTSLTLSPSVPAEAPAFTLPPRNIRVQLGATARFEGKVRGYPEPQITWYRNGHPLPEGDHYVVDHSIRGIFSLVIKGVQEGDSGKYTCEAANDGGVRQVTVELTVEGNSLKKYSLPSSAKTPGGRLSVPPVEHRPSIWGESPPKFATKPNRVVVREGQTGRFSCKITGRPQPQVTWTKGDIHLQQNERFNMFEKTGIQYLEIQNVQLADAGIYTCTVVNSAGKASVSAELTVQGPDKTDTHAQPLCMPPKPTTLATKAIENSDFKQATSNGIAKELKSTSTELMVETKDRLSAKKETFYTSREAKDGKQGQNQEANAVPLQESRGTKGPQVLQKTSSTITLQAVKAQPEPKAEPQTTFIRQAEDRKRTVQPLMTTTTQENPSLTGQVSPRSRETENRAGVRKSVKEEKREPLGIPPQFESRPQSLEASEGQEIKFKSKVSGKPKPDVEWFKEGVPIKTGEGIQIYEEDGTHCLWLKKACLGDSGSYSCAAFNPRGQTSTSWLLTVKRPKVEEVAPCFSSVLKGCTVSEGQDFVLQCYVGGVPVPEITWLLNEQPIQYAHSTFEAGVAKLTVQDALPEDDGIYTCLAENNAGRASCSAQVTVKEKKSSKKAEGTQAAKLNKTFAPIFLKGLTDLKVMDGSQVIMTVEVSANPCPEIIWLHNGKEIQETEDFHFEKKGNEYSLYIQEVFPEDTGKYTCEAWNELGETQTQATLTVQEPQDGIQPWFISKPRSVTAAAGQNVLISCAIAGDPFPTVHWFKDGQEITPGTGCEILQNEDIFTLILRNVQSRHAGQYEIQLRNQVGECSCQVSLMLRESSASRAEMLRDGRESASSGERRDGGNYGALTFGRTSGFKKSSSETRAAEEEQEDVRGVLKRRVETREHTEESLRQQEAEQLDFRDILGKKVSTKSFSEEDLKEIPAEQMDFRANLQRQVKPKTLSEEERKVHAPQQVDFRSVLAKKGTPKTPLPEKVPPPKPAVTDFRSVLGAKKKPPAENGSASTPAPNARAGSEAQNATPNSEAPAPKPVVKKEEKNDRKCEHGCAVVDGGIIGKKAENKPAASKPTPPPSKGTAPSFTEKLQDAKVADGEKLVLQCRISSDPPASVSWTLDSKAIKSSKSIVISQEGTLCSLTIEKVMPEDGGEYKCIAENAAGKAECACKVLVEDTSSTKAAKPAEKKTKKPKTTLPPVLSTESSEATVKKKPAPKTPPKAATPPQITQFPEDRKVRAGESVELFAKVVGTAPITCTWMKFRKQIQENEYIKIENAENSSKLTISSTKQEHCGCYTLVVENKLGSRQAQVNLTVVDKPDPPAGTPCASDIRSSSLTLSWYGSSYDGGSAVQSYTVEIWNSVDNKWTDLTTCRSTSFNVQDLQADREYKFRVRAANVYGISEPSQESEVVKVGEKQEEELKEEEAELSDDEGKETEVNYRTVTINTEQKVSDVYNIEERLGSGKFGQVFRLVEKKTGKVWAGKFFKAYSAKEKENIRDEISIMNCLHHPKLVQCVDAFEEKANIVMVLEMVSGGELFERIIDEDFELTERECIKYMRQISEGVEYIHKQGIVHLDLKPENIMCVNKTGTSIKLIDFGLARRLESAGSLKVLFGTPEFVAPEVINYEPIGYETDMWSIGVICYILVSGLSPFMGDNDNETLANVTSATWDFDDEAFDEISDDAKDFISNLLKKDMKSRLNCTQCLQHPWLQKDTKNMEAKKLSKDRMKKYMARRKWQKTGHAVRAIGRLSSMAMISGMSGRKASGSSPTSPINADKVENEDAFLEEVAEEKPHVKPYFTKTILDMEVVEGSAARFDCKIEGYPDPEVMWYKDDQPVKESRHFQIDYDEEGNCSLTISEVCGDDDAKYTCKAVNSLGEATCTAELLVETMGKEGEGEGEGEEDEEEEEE

Compound | IC50 [1] [nM] | IC50 [2] [nM] | IC50 [3] [nM] | IC50 [4] [nM] | IC50 [5] [nM]
Cn1c2ccccc2c2c3c(c4c5ccccc5n(CCC#N)c4c21)CNC3=O [GO-6976] | – | – | > 100000 | – | > 10000
Cn1c2ccccc2c2c3c(c4c5ccccc5n(CCCN=[N+]=[N-])c4c21)CNC3=O | 450 | 25 | – | – | –
CN1Cc2c(c3c4ccccc4n(C)c3c3c2c2ccccc2n3CCC#N)C1=O | > 10000 | > 30000 | > 30000 | > 30000 | > 10000
CCCn1c2ccccc2c2c3c(c4c5ccccc5n(CCC)c4c21)C(=O)NC3 | – | 8100 | – | – | –
Cn1c2ccccc2c2c3c(c4c5ccccc5n(C)c4c21)C(=O)NC3 | 5800 | 450 | > 100000 | 5500 | –
CCn1c2ccccc2c2c3c(c4c5ccccc5n(CCC#N)c4c21)CNC3=O | 1600 | 27 | 6300 | 1300 | > 10000
CN[C@@H]1C[C@H]2O[C@@](C)([C@@H]1OC)n1c3ccccc3c3c4c(c5c6ccccc6n2c5c31)C(=O)NC4 [STAUROSPORINE] | – | – | – | – | 400
O=C1NCc2c1c1c3ccccc3[nH]c1c1[nH]c3ccccc3c21 [STAUROSPORINONE] | 2800 | 680 | > 10000 | 650 | –

Further lines, results first:

IC50 [1] [nM] | IC50 [2] [nM] | IC50 [3] [nM] | IC50 [4] [nM] | IC50 [5] [nM] | Compound
1800 | 590 | > 100000 | 21000 | – | O=C(O)CCn1c2ccccc2c2c3c(c4c5ccccc5[nH]c4c21)C(=O)NC3
390 | 99 | 4800 | 280 | – | O=C1NCc2c1c1c3ccccc3[nH]c1c1c2c2ccccc2n1CC(O)CO (configuration not stated)
1200 | 200 | > 10000 | 700 | – | CCn1c2ccccc2c2c3c(c4c5ccccc5n(CC)c4c21)C(=O)NC3
1100 | 520 | > 10000 | 400 | – | Cn1c2ccccc2c2c3c(c4c5ccccc5[nH]c4c21)C(=O)NC3
500 | 75 | > 10000 | 320 | – | N#CCCn1c2ccccc2c2c3c(c4c5ccccc5[nH]c4c21)C(=O)NC3
11000 | 100 | > 30000 | 5100 | > 10000 | CCCn1c2ccccc2c2c3c(c4c5ccccc5n(C)c4c21)C(=O)NC3
– | 3500 | – | – | – | CC(C)=CCn1c2ccccc2c2c3c(c4c5ccccc5[nH]c4c21)C(=O)NC3
82 | 110 | – | – | – | NC(=O)CCn1c2ccccc2c2c3c(c4c5ccccc5[nH]c4c21)C(=O)NC3
440 | 32 | 2400 | 710 | > 10000 | Cn1c2ccccc2c2c3c(c4c5ccccc5n(CC(F)F)c4c21)CNC3=O
